Data taken from PubChem BioAssay (NCI).
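All cell lines were grown in 96-well plates and treated with compound for 48 hours. Definition used: TGI = concentration required for complete inhibition of growth.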

The compounds below were run on UACC-257 melanoma (assay: DTP human tumour cell line panel, 48 h).

Row | SMILES | TGI [µM]
1 | c1ccc(CSP234N5CCN2CCN3CCN4CC5)c(CSP234N5CCN2CCN3CCN4CC5)c1 | > 100
2 | O=c1[nH]c(Nc2nc3ccccc3[nH]2)nc2c1CCC2 | > 100
3 | Cc1nn(C(=O)Cc2ccccc2)c2c1C(c1ccc(N(C)C)cc1)SC(N)=N2 (stereo unspecified) | > 100
4 | CCOP(=O)(O)C1C(CO)OC(n2ccc(=O)[nH]c2=O)C1O (stereo unspecified) | > 100
5 | NC(=S)Nc1ccc(S(=O)(=O)Nc2ccc(S(N)(=O)=O)cc2)cc1 | > 100
6 | O=C1NCCCNCCCNCCCNC(=O)c2cccc1n2 | > 100
7 | CN(C)/C=N/S(=O)(=O)c1nn2c(C=O)c(-c3ccc(Cl)cc3)nc2s1 | 9.83
8 | COc1ccc(C2=Nn3c(nnc(Cc4ccc(Cl)cc4)c3=O)SC2)cc1 | > 100
9 | COC1(OC)CC(CO)(CNc2nc(N)nc(Cl)c2/C=N\O)C1 | > 100
10 | CCOC(=O)C(Cc1cn(S(=O)(=O)c2ccccc2)c2ccccc12)(NC(C)=O)C(=O)OCC | 88.2
11 | Cc1ccc2c(c1)C1(C)OC(C=CC1=O)O2 (stereo unspecified) | 3.45

Each compound was assayed on UACC-62 melanoma (assay: DTP human tumour cell line panel, 48 h).

Row | SMILES | TGI [µM]
12 | O=c1c2cc(S(=O)(=O)O)ccc2nc(COc2ccc(Oc3ccc(Cl)cc3Cl)cc2)n1-c1ccc(Cl)cc1Oc1c(Cl)cccc1Cl | 48.9
13 | C=C(CC[C@@H](C)[C@H]1CC[C@@]2(C)C3=C(CC[C@]12C)[C@@]1(C)CC[C@H](O)[C@@H](C)C1CC3)C(C)C (stereo partly specified) | 2.61
14 | CC(=O)OCCOCn1cnc2c(Cl)nc(Cl)nc21 | 30.1
15 | O=C1O/C(=C(/Cl)c2cccc3ccccc23)c2ccccc21 | > 100
16 | COc1ccc(N2C(=O)c3cc(C)cnc3S2(=O)=O)cc1 | > 100
17 | CC(=O)OC1(C)C=CC(=O)C=C1 | 35.7
18 | COc1cc(OC)c2c(=O)c(OC)c(-c3ccc4c(c3)OCO4)oc2c1 | 72
19 | NC(N)=N/N=C/c1c(-c2cccc([N+](=O)[O-])c2)nc2n1CCS2 | 39
20 | Cn1c(=O)c2[nH]c(CCCCC(=O)O)nc2n(C)c1=O | > 100
21 | N#Cc1nc(C2=C(Cl)c3ccccc3OC2)[nH]c1C#N | 64.3
22 | O=C1C=CC=C/C1=C1\N=C(c2ccccc2OCC(=O)c2ccc(Br)cc2)SS1 | > 100
23 | COc1ccc(CCN2CCN(CCc3ccc(OC)cc3)CC2)cc1 | > 100
24 | CCn1c2ccccc2n2c(=O)c3c(c(C#N)c12)CCCC3 | > 100
25 | c1ccc(CSP234N5CCN2CCN3CCN4CC5)c(CSP234N5CCN2CCN3CCN4CC5)c1 | > 100
26 | O=c1[nH]c(Nc2nc3ccccc3[nH]2)nc2c1CCC2 | > 100
27 | Cc1nn(C(=O)Cc2ccccc2)c2c1C(c1ccc(N(C)C)cc1)SC(N)=N2 (stereo unspecified) | > 100
28 | CCOP(=O)(O)C1C(CO)OC(n2ccc(=O)[nH]c2=O)C1O (stereo unspecified) | > 100
29 | NC(=S)Nc1ccc(S(=O)(=O)Nc2ccc(S(N)(=O)=O)cc2)cc1 | > 100
30 | O=C1NCCCNCCCNCCCNC(=O)c2cccc1n2 | > 100
31 | CSC1=N/C(=C\c2ccccc2)C(=O)N1CN1CCCCC1 | > 100
32 | CN(C)/C=N/S(=O)(=O)c1nn2c(C=O)c(-c3ccc(Cl)cc3)nc2s1 | 14.3
33 | COc1ccc(C2=Nn3c(nnc(Cc4ccc(Cl)cc4)c3=O)SC2)cc1 | > 100
34 | CCOC(=O)C(Cc1cn(S(=O)(=O)c2ccccc2)c2ccccc12)(NC(C)=O)C(=O)OCC | > 100
35 | Cc1ccc2c(c1)C1(C)OC(C=CC1=O)O2 (stereo unspecified) | 3.6

The compounds below were run on SW-620 colon (assay: DTP human tumour cell line panel, 48 h).

Row | SMILES | TGI [µM]
36 | O=c1c2cc(S(=O)(=O)O)ccc2nc(COc2ccc(Oc3ccc(Cl)cc3Cl)cc2)n1-c1ccc(Cl)cc1Oc1c(Cl)cccc1Cl | 79.6
37 | C=C(CC[C@@H](C)[C@H]1CC[C@@]2(C)C3=C(CC[C@]12C)[C@@]1(C)CC[C@H](O)[C@@H](C)C1CC3)C(C)C (stereo partly specified) | 3.44
38 | CC(=O)OCCOCn1cnc2c(Cl)nc(Cl)nc21 | 30.7
39 | O=C1O/C(=C(/Cl)c2cccc3ccccc23)c2ccccc21 | > 100
40 | COc1ccc(N2C(=O)c3cc(C)cnc3S2(=O)=O)cc1 | > 100
41 | CC(=O)OC1(C)C=CC(=O)C=C1 | > 100
42 | COc1cc(OC)c2c(=O)c(OC)c(-c3ccc4c(c3)OCO4)oc2c1 | > 100
43 | CC1(C)CC(=O)C(/C=N/c2nc(-c3ccccc3)cs2)=C(O)C1 | > 100
44 | NC(N)=N/N=C/c1c(-c2cccc([N+](=O)[O-])c2)nc2n1CCS2 | 37.7
45 | Cn1c(=O)c2[nH]c(CCCCC(=O)O)nc2n(C)c1=O | > 100
46 | N#Cc1nc(C2=C(Cl)c3ccccc3OC2)[nH]c1C#N | > 100
47 | O=C1C=CC=C/C1=C1\N=C(c2ccccc2OCC(=O)c2ccc(Br)cc2)SS1 | > 100
48 | Cc1ccc(-c2c3nc(c(-c4ccc(C)cc4)c4ccc([nH]4)c(-c4ccc(OCC5COC(C)(C)O5)cc4)c4nc(c(-c5ccc(C)cc5)c5ccc2[nH]5)C=C4)C=C3)cc1 (stereo unspecified) | > 31.6
49 | N#Cc1c(-c2ccccc2)cc(Nc2cccc(C(F)(F)F)c2)n2c1nc1ccccc12 | 14.2
50 | COc1ccc(CCN2CCN(CCc3ccc(OC)cc3)CC2)cc1 | > 100
51 | CCn1c2ccccc2n2c(=O)c3c(c(C#N)c12)CCCC3 | > 100
52 | c1ccc(CSP234N5CCN2CCN3CCN4CC5)c(CSP234N5CCN2CCN3CCN4CC5)c1 | > 100
53 | O=c1[nH]c(Nc2nc3ccccc3[nH]2)nc2c1CCC2 | > 100
54 | Cc1nn(C(=O)Cc2ccccc2)c2c1C(c1ccc(N(C)C)cc1)SC(N)=N2 (stereo unspecified) | > 100
55 | CCOP(=O)(O)C1C(CO)OC(n2ccc(=O)[nH]c2=O)C1O (stereo unspecified) | > 100
56 | NC(=S)Nc1ccc(S(=O)(=O)Nc2ccc(S(N)(=O)=O)cc2)cc1 | > 100
